These results are taken from patent US20120129897A1, “BIS HETEROARYL INHIBITORS OF PRO-MATRIX METALLOPROTEINASE ACTIVATION” (priority 2010, published 2012).

Where a name gives a salt, the structure may show the parent alone. A value given as a limit tells only on which side of the number the result lay.

Test [1] deals with T1, proMMP9(67-444;ΔFnII) (SEQ ID NO:5) (Homo sapiens, UniProt P14780, DEL216-390).
T1 construct: start methionine (N); made in house; host or cells: E. coli BL21(DE3) RIL
T1 sequence (P14780 with tags, fused parts or gaps DEL216-390): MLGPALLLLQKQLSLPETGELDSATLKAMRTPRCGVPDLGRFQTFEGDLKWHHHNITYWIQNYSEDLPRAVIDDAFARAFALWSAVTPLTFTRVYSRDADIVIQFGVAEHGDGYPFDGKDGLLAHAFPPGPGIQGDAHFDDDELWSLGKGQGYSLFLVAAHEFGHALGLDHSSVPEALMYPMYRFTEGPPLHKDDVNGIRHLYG
Put plainly: ThermoFluor binding assay with proMMP9(67-444;ΔFnII). The method, then: (§1) The ThermoFluor® (TF) assay is a 384-well plate-based binding assay that measures thermal stability of proteins (Biomol Screen 2001, 6, 429-40; Biochemistry 2005, 44, 5258-66). The experiments were carried out using instruments available from Johnson & Johnson Pharmaceutical Research & Development, LLC. TF dye used in all experiments was […] (1,8-ANS) (Invitrogen: A-47).
(§2) Compounds were arranged in a pre-dispensed plate (Greiner Bio-one: 781280), wherein compounds were serially diluted in 100% DMSO across 11 columns within a series. Columns 12 and 24 were used as DMSO reference and contained no compound. For multiple compound concentration-response experiments, the compound aliquots ([…]) were robotically predispensed directly into black 384-well polypropylene PCR microplates (Abgene: TF-0384/k) using a Cartesian Hummingbird liquid handler (DigiLab, Holliston, Mass.). Following compound dispense, protein and dye solutions were added to achieve the final assay volume of 3 μL. The assay solutions were overlayed with 1 μL of silicone oil (Fluka, type DC 200: 85411) to prevent evaporation.
(§3) Assay plates were robotically loaded onto a thermostatically controlled PCR-type thermal block and then heated from 40 to 90° C. at a ramp-rate of 1° C./min for all experiments. Fluorescence was measured by continuous illumination with UV light (Hamamatsu LC6) supplied via fiber optics and filtered through a band-pass filter (380-400 nm; >60D cutoff). Fluorescence emission of the entire 384-well plate was detected by measuring light intensity using a CCD camera (Sensys, Roper Scientific) filtered to detect 500±25 nm, resulting in simultaneous and independent readings of all 384 wells. A single image with 20-sec exposure time was collected at each temperature, and the sum of the pixel intensity in a given area of the assay plate was recorded vs temperature and fit to standard equations to yield the Tm (J Biomol Screen 2001, 6, 429-40).
(§4) Thermodynamic parameters necessary for fitting compound binding for each proMMP were estimated by differential scanning calorimetry (DSC) and from ThermoFluor® data. The heat capacity of unfolding for each protein was estimated from the molecular weight and from ThermoFluor® dosing data.
The protein sample preparations had to include a desalting buffer exchange step via a PD-10 gravity column (GE Healthcare). The desalting buffer exchange was performed prior to diluting the protein to the final assay concentration of 3.5 μM proMMP9(67-444;ΔFnII) (SEQ ID NO:5). The concentration of proMMP9(67-444;ΔFnII) (SEQ ID NO:5) was determined spectrophotometrically based on a calculated extinction coefficient of ε280=33900 M^−1cm^−1, a calculated molecular weight of 22.6 kDa, and calculated pI of 5.20. ThermoFluor® reference conditions were defined as follows: 80 μg/mL (3.5 μM) proMMP9(67-444;ΔFnII) (SEQ ID NO:5), 50 μM 1,8-ANS, pH 7.0 Buffer (50 mM HEPES pH 7.0, 100 mM NaCl, 0.001% Tween-20, 2.5 mM MgCl2, 300 μM CaCl2). The thermodynamic parameters for proMMP9(67-444;ΔFnII) (SEQ ID NO:5) are as follows: Tm (° C.)=63 (+/−0.1), ΔUH(Tm) (cal mol^−1)=105000(+/−5000), ΔUS(Tm) (cal mol^−1 K^−1)=[…], ΔUCp (cal mol^−1 K^−1)=2000.
On the technique in general: Differential scanning fluorimetry follows unfolding on heating by fluorescence.

The target of test [2] is T2, proMMP9(20-445;ΔFnII) (SEQ ID NO:6) (Homo sapiens, UniProt P14780, DEL216-390).
T2 construct: start methionine (N); made in house; host or cells: E. coli BL21(DE3) RIL
T2 sequence (P14780 with tags, fused parts or gaps DEL216-390): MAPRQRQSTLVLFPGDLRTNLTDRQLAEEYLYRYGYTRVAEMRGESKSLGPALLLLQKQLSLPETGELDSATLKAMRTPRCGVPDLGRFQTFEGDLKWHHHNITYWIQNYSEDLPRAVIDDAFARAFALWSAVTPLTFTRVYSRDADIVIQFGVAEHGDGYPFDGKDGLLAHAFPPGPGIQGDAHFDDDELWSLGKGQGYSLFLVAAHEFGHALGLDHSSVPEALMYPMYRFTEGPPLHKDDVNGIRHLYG
The test can be described thus: ThermoFluor binding assay with proMMP9(20-445;ΔFnII). The method, then: as §1, §2, §3, §4
The protein sample preparations included a desalting buffer exchange step via a PD-10 gravity column (GE Healthcare). The desalting buffer exchange was performed prior to diluting the protein to the final assay concentration of 2.8 μM proMMP9(20-445;ΔFnII) (SEQ ID NO:6). The concentration of proMMP9(20-445;ΔFnII) (SEQ ID NO:6) was determined spectrophotometrically based on a calculated extinction coefficient of ε280=39880 M^−1cm^−1, a calculated molecular weight of 28.2 kDa, and calculated pI of 5.5. ThermoFluor® reference conditions were define as follows: 80 μg/mL (2.8 μM) proMMP9(20-445;ΔFnII) (SEQ ID NO:6), 50 μM 1,8-ANS, pH 7.0 Buffer (50 mM HEPES pH 7.0, 100 mM NaCl, 0.001% Tween-20, 2.5 mM MgCl2, 300 μM CaCl2). The thermodynamic parameters for proMMP9(20-445;ΔFnII) (SEQ ID NO:6) are as follows: Tm (° C.)=72 (+/−0.1), ΔUH(Tm) (cal mol^−1)=160000(+/−5000), ΔUS(Tm) (cal mol^−1 K^−1)=434, ΔUCp ([…])=2400.

In test [3] the target is T3, proMMP13(1-268) (SEQ ID NO:7) (Homo sapiens, UniProt P45452). The test can be described thus: ThermoFluor binding assay with proMMP13(1-268). Further details: 6x-histidine (C); made in house. The method, then: as §1, §2, §3, §4
The proMMP13(1-268) (SEQ ID NO:7) protein sample preparations included a desalting buffer exchange step via a PD-10 gravity column (GE Healthcare). The desalting buffer exchange was performed prior to diluting the protein to the final assay concentration of 3.5 μM. The concentration of proMMP13(1-268) (SEQ ID NO:7) was estimated spectrophotometrically based on a calculated extinction coefficient of ε280=37000 M^−1cm^−1, a calculated molecular weight of 30.8 kDa, and calculated pI of 5.33. ThermoFluor® reference conditions were defined as follows: 100 μg/mL proMMP13(1-268) (SEQ ID NO:7), 25 μM 1,8-ANS, pH 7.0 Buffer (50 mM HEPES pH 7.0, 100 mM NaCl, 0.001% Tween-20, 2.5 mM MgCl2, 300 μM CaCl2). The thermodynamic parameters for proMMP13(1-268) (SEQ ID NO:7) are as follows: Tm (° C.)=67 (+/−0.1), ΔUH(Tm) (cal mol^−1)=107000(+/−5000), ΔUS(Tm) (cal mol^−1 K^−1)=318, ΔUCp (cal mol^−1 K^−1)=2600.

The target of test [4] is T4, full-length proMMP9(1-707) (SEQ ID NO:1) (Homo sapiens, UniProt P14780, R574P).
T4 construct: made in house; host or cells: HEK293 (proMMP9, secreted); E. coli (MMP3)
Put plainly: proMMP9/MMP3 P126 Activation Assay. The test is classed as biochemical. Conditions: 20 nM proMMP9, 20 nM MMP3, 80 min 37° C. The method, then:
The reaction volume was 50 μL. […] Reactivity of residual MMP3 towards P-126 substrate was minimal under these conditions.

Test [5] addresses T3, proMMP13(1-268) (SEQ ID NO:7). The test can be described thus: ProMMP13/Plasmin P126 Activation Assay. In kind it is biochemical. More on the design: 6x-histidine (C); made in house; host or cells: HEK293 (transient transfection, secreted). Conditions: 8 nM proMMP13, 16 nM plasmin, 40 min 37° C. The method, then: On the day of assay, proMMP13(1-268) (SEQ ID NO:7) purified from HEK293 cells and plasmin were diluted to 160 nM and 320 nM, respectively, in assay buffer. The reaction volume was 50 μL. […] The plate was sealed and incubated for 40 min at 37° C. […] Plasmin was not reactive towards P-126 substrate under these conditions.

T4 sequence (P14780 20-707 R574P): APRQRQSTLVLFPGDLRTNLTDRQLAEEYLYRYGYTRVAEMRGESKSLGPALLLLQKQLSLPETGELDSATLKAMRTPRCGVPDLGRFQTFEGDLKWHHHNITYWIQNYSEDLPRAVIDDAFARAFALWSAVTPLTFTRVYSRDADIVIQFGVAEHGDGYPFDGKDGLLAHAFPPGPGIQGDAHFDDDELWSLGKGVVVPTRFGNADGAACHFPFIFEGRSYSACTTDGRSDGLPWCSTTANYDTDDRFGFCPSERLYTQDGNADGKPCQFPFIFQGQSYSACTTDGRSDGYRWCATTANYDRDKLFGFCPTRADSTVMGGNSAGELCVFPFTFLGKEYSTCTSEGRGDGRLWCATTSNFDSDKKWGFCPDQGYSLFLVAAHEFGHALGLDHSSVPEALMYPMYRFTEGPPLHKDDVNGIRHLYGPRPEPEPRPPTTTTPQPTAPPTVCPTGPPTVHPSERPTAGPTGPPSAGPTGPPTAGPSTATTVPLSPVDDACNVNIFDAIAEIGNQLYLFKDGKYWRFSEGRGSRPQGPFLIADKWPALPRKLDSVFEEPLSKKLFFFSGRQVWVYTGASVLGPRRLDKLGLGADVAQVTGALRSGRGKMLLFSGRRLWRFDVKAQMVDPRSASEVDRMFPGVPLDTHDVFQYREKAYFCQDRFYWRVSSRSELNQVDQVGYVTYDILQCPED

What is called Kd is the equilibrium constant for the complex coming apart. A low value points to a tighter complex. As usually defined, the IC50 is the concentration at which inhibition is half-maximal. A higher IC50 goes with weaker potency in that assay. Turning to `Cc1nc(C)n(C)c1-c1csc(Nc2cc(S(N)(=O)=O)ccc2OC(C)C)n1` [Example 1, 4-Isopropoxy-3-[4-(2,3,5-trimethyl-3H-imidazol-4-yl)-thiazol-2-ylamino]-benzenesulfonamide], the Kd in test [1] stood at 8.6 µM; in test [2], 4.7 µM; in test [3], 1.6 µM. Further, 2.3 µM corresponded to half-maximal inhibition in test [4] (IC50).
In the case of `Cc1nc(C)n(C)c1-c1csc(Nc2cc(C(N)=O)ccc2OC(C)C)n1` [Example 7, 4-Isopropoxy-3-[4-(2,3,5-trimethyl-3H-imidazol-4-yl)-thiazol-2-ylamino]-benzamide.TFA], the Kd stood at 42 µM in test [1] and 5.9 µM in test [2]. The same compound returned an IC50 in test [4] of 1.9 µM.
On to `Cc1nc(C)c(-c2csc(Nc3cc(C(N)=O)ccc3OC(C)C)n2)o1` [Example 6, 3-[4-(2,4-Dimethyl-oxazol-5-yl)-thiazol-2-ylamino]-4-isopropoxy-benzamide], for which the results for the Kd in test [1], in test [2] and in test [3] were 7.2 µM, 0.17 µM and 6.1 µM, respectively. For the same compound, the IC50 in test [5] is 6 µM; in test [4], 0.27 µM.
`CCOc1ccc(C#N)cc1Nc1nc(-n2cc(C)nc2C)cs1` [Example 4, 3-[4-(2,4-Dimethyl-imidazol-1-yl)-thiazol-2-ylamino]-4-ethoxy-benzonitrile]: the values for the Kd in test [1], in test [2] and in test [3] were 36 µM, 76 µM and more than 95 µM, respectively. Also, in test [4], the IC50 is approximately 5 µM.
`CCOc1ccc(C#N)cc1Nc1nc(-c2cnn(C)c2)cs1` [Example 5, 4-Ethoxy-3-[4-(1-methyl-1H-pyrazol-4-yl)-thiazol-2-ylamino]-benzonitrile]: the Kd was found to be 14 µM in test [1], 8.9 µM in test [2] and 17 µM in test [3].
For the compound `Cc1nc(-c2csc(Nc3cc(C(N)=O)ccc3OC(C)C)n2)c(C)[nH]1` [Example 3, 3-[4-(2,5-Dimethyl-1H-imidazol-4-yl)-thiazol-2-ylamino]-4-isopropoxy-benzamide.TFA], the Kd in test [1] was more than 95 µM; in test [2] it was 4.8 µM; in test [3], 5.1 µM. Moreover, in test [4], half-maximal inhibition (IC50) was put at 0.79 µM.
Consider `Cc1nc(-c2csc(Nc3cc(S(N)(=O)=O)ccc3OC(C)C)n2)c(C)n1C` [Example 2, 4-Isopropoxy-3-[4-(1,2,5-trimethyl-1H-imidazol-4-yl)-thiazol-2-ylamino]-benzenesulfonamide.TFA], for which the Kd in test [1] was determined as 33.2 µM; in test [2], 12 µM; in test [3] it was 10 µM. For the same compound, the IC50 in test [4] was approximately 6 µM.
